Assay [1] concerns Proteus vulgaris. Nature of the assay: Antimicrobial activity against Proteus vulgaris ATCC 49132 after 24 hr by two-fold serial dilution method. Type of assay: functional. To be noted: ATCC 49132, 24 h.
Assay [2] concerns Saccharomyces cerevisiae. Nature of the assay: Antimicrobial activity against Saccharomyces cerevisiae ATCC 9763 after 48 hr by agar cup diffusion technique. The assay is classed as functional.
Assay [3] has as its system Candida albicans. Nature of the assay: Antimicrobial activity against Candida albicans NCTC 2708 after 48 hr by agar cup diffusion technique. Type of assay: functional.
Assay [4] has as its system Proteus vulgaris. Nature of the assay: Antimicrobial activity against Proteus vulgaris ATCC 49132 after 24 hr by agar cup diffusion technique. The assay is classed as functional.
Assay [5] concerns Staphylococcus aureus. Nature of the assay: Antimicrobial activity against Staphylococcus aureus NCTC 4163 after 24 hr by agar cup diffusion technique. The assay is classed as functional.
For assay [6], the system named is Escherichia coli. Nature of the assay: Antimicrobial activity against Escherichia coli 5933 after 24 hr by agar cup diffusion technique. Type of assay: functional.
Assay [7] concerns MCF7. Nature of the assay: Anticancer activity against Homo sapiens (human) MCF7 cells assessed as cell growth at 100 uM after 48 hr by Alamar blue assay. The assay is classed as functional. To be noted: MCF7, 48 h, read-out: Activity.
In assay [8] the test system is Bacillus spizizenii. Nature of the assay: Antimicrobial activity against Bacillus subtilis subsp. spizizenii ATCC 6633 after 24 hr by agar cup diffusion technique. The assay is classed as functional.
Assay [9] has as its system Pseudomonas aeruginosa. Nature of the assay: Antimicrobial activity against Pseudomonas aeruginosa ATCC 9027 after 24 hr by agar cup diffusion technique. Type of assay: functional.
Assay [10] has as its system NCI-H460. Nature of the assay: Anticancer activity against Homo sapiens (human) NCI-H460 cells assessed as cell growth at 100 uM after 48 hr by Alamar blue assay. The assay is classed as functional. The following applies: NCI-H460, 48 h, read-out: Activity.
Assay [11] deals with SF-268. Nature of the assay: Anticancer activity against Homo sapiens (human) SF268 cells assessed as cell growth at 100 uM after 48 hr by Alamar blue assay. Type of assay: functional. To be noted: SF-268, 48 h, read-out: Activity. A general note: Resazurin is reduced to fluorescent resorufin, in cell work by metabolically active cells.
For assay [12], the system named is CCRF-CEM. Nature of the assay: Cytotoxicity against Homo sapiens (human) CEM cells by XTT assay. Type of assay: cell-based. In general terms: Tetrazolium assays rely on reduction of a dye to a coloured formazan, in cell work by metabolically active cells.
The test system of assay [13] is Human immunodeficiency virus 1. Nature of the assay: Antiviral activity against Human immunodeficiency virus 1 infected CEM cells assessed as inhibition of virus-induced cytopathic effect at 2 X 10^-4 M by XTT assay. Type of assay: functional. To be noted: Human immunodeficiency virus 1, CCRF-CEM. (In general: Cytopathic effects are the visible damage that an infection or toxin causes in cultured cells.)

Assay [14] relates to Staphylococcus aureus. Nature of the assay: Antimicrobial activity against Staphylococcus aureus NCTC 4163 after 24 hr by two-fold serial dilution method. Type of assay: functional. The following applies: NCTC 4163, 24 h.
For assay [15], the system named is Pseudomonas aeruginosa. Nature of the assay: Antimicrobial activity against Pseudomonas aeruginosa ATCC 9027 after 24 hr by two-fold serial dilution method. Type of assay: functional. To be noted: ATCC 9027, 24 h.
The subject of assay [16] is Aspergillus niger. Nature of the assay: Antimicrobial activity against Aspergillus niger ATCC 16404 after 48 hr by agar cup diffusion technique. Type of assay: functional.
For assay [17], the system named is Human immunodeficiency virus 1. Nature of the assay: Antiviral activity against Human immunodeficiency virus 1 infected CEM cells assessed as inhibition of virus-induced cytopathic effect at 2 X 10^-5 M by XTT assay. Type of assay: functional. The following applies: Human immunodeficiency virus 1, CCRF-CEM.
The subject of assay [18] is Aspergillus niger. Nature of the assay: Antimicrobial activity against Aspergillus niger ATCC 16404 after 48 hr by two-fold serial dilution method. The assay is classed as functional. To be noted: ATCC 16404, 48 h.
The subject of assay [19] is Candida albicans. Nature of the assay: Antimicrobial activity against Candida albicans NCTC 2708 after 48 hr by two-fold serial dilution method. Type of assay: functional. To be noted: NCTC 2708, 48 h.
For assay [20], the system named is Aspergillus terreus. Nature of the assay: Antimicrobial activity against Aspergillus terreus after 48 hr by two-fold serial dilution method. Type of assay: functional.
The test system of assay [21] is Saccharomyces cerevisiae. Nature of the assay: Antimicrobial activity against Saccharomyces cerevisiae ATCC 9763 after 48 hr by two-fold serial dilution method. Type of assay: functional. The following applies: ATCC 9763, 48 h.
Assay [22] has as its system Salmonella typhi. Nature of the assay: Antimicrobial activity against Salmonella enterica subsp. enterica serovar Typhi ATCC 13311 after 24 hr by agar cup diffusion technique. The assay is classed as functional.
The test system of assay [23] is Bacillus spizizenii. Nature of the assay: Antimicrobial activity against Bacillus subtilis subsp. spizizenii ATCC 6633 after 24 hr by two-fold serial dilution method. The assay is classed as functional. The following applies: ATCC 6633, 24 h.
In assay [24] the test system is Salmonella typhi. Nature of the assay: Antimicrobial activity against Salmonella enterica subsp. enterica serovar Typhi ATCC 13311 after 24 hr by two-fold serial dilution method. The assay is classed as functional. To be noted: ATCC 13311, 24 h.

The text below walks through data of ChEMBL document CHEMBL3046414, “Synthesis, anticancer, anti-HIV-1, and antimicrobial activity of some tricyclic triazino and triazolo[4,3-e]purine derivatives” (Med Chem Res, 2012).

In brackets after ≈: the same amount, converted by molar mass.

As to `CCOC(=O)c1n[nH]c2nc3c(=O)n(C)c(=O)n(C)c3n2c1=N`, the minimal inhibitory concentration (MIC) in assay [1] was below 100 µg/mL. Further, the “inhibition zone (IZ)” value in assay [2] was 15 mm; in assay [3], 17 mm; in assay [4], 22 mm; in assay [5], 16 mm; in assay [6], 15 mm; in [8], 14 mm. Also, in [9], the “inhibition zone (IZ)” value is on record as 20 mm. The values for the growth at 100 µM in assay [7], in assay [10] and in [11] were 93%, 99% and 98%, respectively.
As to `Cn1c(=O)c2nc3[nH]nc(C#N)c(=O)n3c2n(C)c1=O`, the MIC in assay [1] is below 100 µg/mL. The “inhibition zone (IZ)” value is 14 mm in assay [2]; 15 mm in assay [3]; 22 mm in assay [4]; 14 mm in [5]; 12 mm in assay [6]; 16 mm in assay [9]. Moreover, in [12], the IC50 is above 200 µM. Also, the inhibition at 200 µM in assay [13] is 10.9%.
On to `Cn1c(=O)c2c(n(C)c1=O)n1c(SCc3ccccc3)nnc1n2C`, for which the “inhibition zone (IZ)” value in assay [2] was 14 mm; in [3], 11 mm; in [4], 18 mm; in assay [5] it was 26 mm; in assay [6], 12 mm; in assay [9] it was 19 mm. The half-maximal inhibitory concentration (IC50) in [12] is above 200 µM. Moreover, the inhibition at 200 µM in [13] is 35.5%. In assay [14], the MIC is below 25 µg/mL.
`Cn1c(=O)c2c(n(C)c1=O)n1c(-c3ccc(Cl)cc3)nnc1n2C`: the MIC in assay [1] was below 100 µg/mL; in [15], below 200 µg/mL; in assay [14], below 100 µg/mL. Further, the “inhibition zone (IZ)” value in assay [2] is given as 14 mm; in [3], 12 mm; in [4], 25 mm; in assay [5], 22 mm; in assay [6] it was 12 mm; in [8] it was 13 mm. Further, the “inhibition zone (IZ)” value in assay [9] was found to be 21 mm. The growth at 100 µM is 82% in assay [7], 95% in assay [10] and 90% in [11].
On to `Cn1c(=O)c2nc3[nH]nc(C(=O)O)c(=O)n3c2n(C)c1=O`, for which the “inhibition zone (IZ)” value in [16] stood at 20 mm; in assay [2], 14 mm; in assay [3] it was 13 mm; in assay [4] it was 21 mm; in assay [5], 14 mm; in assay [6] it was 13 mm. The “inhibition zone (IZ)” value turned out to be 14 mm in [8] and 16 mm in assay [9]. The minimum inhibitory concentration (MIC) in [1] and in assay [18] was below 200 µg/mL in each case. For the same molecule, the inhibition at 20 µM in assay [17] came to 3.73%. In assay [12], this molecule returned an IC50 above 200 µM.
For the molecule `Cn1c(=O)c2c(n(C)c1=O)n1c(-c3ccc(Br)cc3)nnc1n2C`, the “inhibition zone (IZ)” value in assay [16] turned out to be 22 mm; in assay [2] it was 13 mm; in [3], 14 mm; in assay [4], 22 mm; in [5] it was 14 mm; in assay [6] it was 12 mm. Further, the “inhibition zone (IZ)” value in [8] was 11 mm; in assay [9], 20 mm. Further, the MIC in [1] was below 100 µg/mL; in assay [15], below 200 µg/mL; in assay [18], below 100 µg/mL.
`Clc1ccccc1C(c1ccccc1)(c1ccccc1)n1ccnc1` [CLOTRIMAZOLE]: the MIC was 5 µg/mL (≈ 14.5 µM) in assay [19], 10 µg/mL (≈ 29 µM) in [20], 10 µg/mL (≈ 29 µM) in [18] and 5 µg/mL (≈ 14.5 µM) in assay [21].
With `Cn1c(=O)c2c(n(C)c1=O)n1c(-c3ccccc3)nnc1n2C`, the “inhibition zone (IZ)” value in [16] amounted to 16 mm; in assay [22], 11 mm; in assay [2], 15 mm; in assay [3], 12 mm; in assay [4] it was 19 mm; in assay [6], 14 mm. For the same molecule, the “inhibition zone (IZ)” value is listed as 15 mm in [8] and 17 mm in [9]. Moreover, the growth at 100 µM in assay [7] turned out to be 84%; in assay [10], 98%; in [11], 90%.
Turning to `Cn1c(=O)c2[nH]c(/N=N/c3c(N)n[nH]c3N)nc2n(C)c1=O`, the “inhibition zone (IZ)” value in assay [2] is 12 mm; in [3] it was 11 mm; in assay [4], 14 mm; in assay [8] it was 10 mm. In addition, the IC50 in assay [12] was above 200 µM. In addition, the inhibition at 200 µM in [13] came to 30.5%.
As to `CCSc1nnc2n(C)c3c(=O)n(C)c(=O)n(C)c3n12`, the “inhibition zone (IZ)” value in assay [2] was determined as 13 mm; in assay [3], 11 mm; in assay [4], 19 mm; in assay [5] it was 20 mm; in [6], 12 mm; in [8], 13 mm. Besides, in assay [9], the “inhibition zone (IZ)” value amounted to 19 mm. Also, in [14], the MIC was below 200 µg/mL.
On to `Cn1c(=O)c2c(n(C)c1=O)n1c(=S)[nH]nc1n2C`, for which the “inhibition zone (IZ)” value was found to be 12 mm in assay [2]; 11 mm in assay [3]; 19 mm in assay [4]; 24 mm in assay [5]; 12 mm in assay [6]; 11 mm in assay [8]. Besides, in assay [9], the “inhibition zone (IZ)” value is 21 mm. Besides, the MIC in assay [15] is below 100 µg/mL; in assay [14], below 50 µg/mL.
As for `CSc1nnc2n(C)c3c(=O)n(C)c(=O)n(C)c3n12`, the “inhibition zone (IZ)” value in [2] amounted to 12 mm; in assay [3], 11 mm; in assay [4], 19 mm; in assay [5], 20 mm; in assay [6], 12 mm; in [9], 20 mm. The molecule also returned an IC50 in assay [12] above 200 µM. The inhibition at 200 µM in assay [13] was 4.86%. For the same molecule, the MIC in [15] and in [14] was below 200 µg/mL each time.
Turning to `CC1(C)S[C@@H]2[C@H](NC(=O)[C@H](N)c3ccccc3)C(=O)N2[C@H]1C(=O)O` [AMPICILLIN], the MIC was determined as 5 µg/mL (≈ 14.3 µM) in assay [23]; 50 µg/mL (≈ 143 µM) in assay [1]; 100 µg/mL (≈ 286 µM) in assay [24]; 100 µg/mL (≈ 286 µM) in [15]; 5 µg/mL (≈ 14.3 µM) in [14].
Regarding `CC(=O)c1n[nH]c2nc3c(=O)n(C)c(=O)n(C)c3n2c1=O`, the MIC in assay [1] is below 100 µg/mL. In addition, the “inhibition zone (IZ)” value in assay [2] worked out at 13 mm; in [3], 13 mm; in [4], 23 mm; in [6], 14 mm; in [8], 14 mm. For the same molecule, the inhibition at 20 µM in [17] stood at 1.43%. This molecule showed an IC50 in assay [12] above 200 µM.

As a reminder, the MIC is the lowest concentration that inhibits growth of the organism. A low value points to a more susceptible organism. A word on the IC50: it is the point on the concentration scale where inhibition reaches its midpoint. A higher IC50 goes with weaker potency in that assay. A word on the inhibition: it is how much of the control response was suppressed.
